Test results: ChEMBL document CHEMBL1201862, “PubChem BioAssay data set” (2004)
Activity calls are given as the source filed them.

Legend:
[1] = molecular target: Metabotropic glutamate receptor 4 (Homo sapiens, UniProt Q14833); assay: Modulation of the Metabotropic Glutamate Receptor mGluR4: Potency at human mGluR4. Modulation of intracellular Ca2+ using Fluo-4, AM, in CHO expressing recombinant receptor [Related pubchem assays (depositor defined):AID2437, AID2807]; format: functional, cell-based
[2] = molecular target: Metabotropic glutamate receptor 4 (Rattus norvegicus, UniProt P31423); assay: Modulation of the Metabotropic Glutamate Receptor mGluR4: Rat PAM Potency. [Related pubchem assays (depositor defined):AID2437, AID2807]; format: functional
[3] = molecular target: Acyl-homoserine lactone acylase PvdQ (Pseudomonas aeruginosa (strain LESB58), UniProt Q9I194); assay: PvdQ acylase enzyme activity blockers – biochemical, fluorescence, plate reader and imaging, cherry-picks, dose response (AID 493231)
HeLa = assay: viability loss in HeLa cells – cell-based, 24 h, cherry-picked samples, cytotoxicity control, dose response (AID 504726); format: functional; conditions: Homo sapiens;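 further: potency for cytotoxicity as loss of luminescence signal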
[4] = molecular target: Melanin-concentrating hormone receptor 1 (Homo sapiens, UniProt Q99705); assay: Late-stage fluorescence-based counterscreen for antagonists of the G-protein coupled receptor 7 (GPR7): cell-based dose response assay to identify antagonists of the melanin-concentrating hormone receptor 1 (MCHR1). [Related pubchem assays (depositor defined):AID1861, AID1880, AID1952, AID2148, AID2251, AID2257, AID485339]; format: functional;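 further: stimulated with 30 nM MCH peptide agonist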
Mucolipin-3 = Mucolipin-3 (Homo sapiens, UniProt Q8TDD5); assay: Dose response cell-based high-throughput screening assay for agonists of the transient receptor potential channel ML3 (TRPML3). [Related pubchem assays: 1526, 1424, 1448 ]; format: functional
Mucolipin-3, sequence (Q8TDD5 whole entry): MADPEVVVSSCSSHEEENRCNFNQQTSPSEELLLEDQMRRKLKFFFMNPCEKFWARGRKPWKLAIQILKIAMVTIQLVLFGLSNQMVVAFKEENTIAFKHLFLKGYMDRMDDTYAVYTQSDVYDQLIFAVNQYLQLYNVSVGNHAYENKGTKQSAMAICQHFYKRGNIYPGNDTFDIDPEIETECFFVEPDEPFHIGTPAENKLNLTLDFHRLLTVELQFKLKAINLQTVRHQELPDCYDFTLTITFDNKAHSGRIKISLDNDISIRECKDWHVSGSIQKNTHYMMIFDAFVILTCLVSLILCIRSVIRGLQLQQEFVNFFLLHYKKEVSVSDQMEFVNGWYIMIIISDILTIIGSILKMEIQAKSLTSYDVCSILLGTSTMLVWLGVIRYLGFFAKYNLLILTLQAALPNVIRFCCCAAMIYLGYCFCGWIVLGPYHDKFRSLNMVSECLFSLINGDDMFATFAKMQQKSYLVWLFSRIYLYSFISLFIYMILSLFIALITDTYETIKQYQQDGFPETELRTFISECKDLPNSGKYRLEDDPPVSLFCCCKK

[5] = molecular target: T1, Corticotropin-releasing factor receptor 2/Corticotropin-releasing factor-binding protein (Homo sapiens, UniProt P24387+Q13324); assay: activators of CRF receptor 2 with binding protein – uHTS hits, confirmation (AID 602473); format: functional; conditions: read-out: EC50_Mean
T1 sequence (Q13324 whole entry): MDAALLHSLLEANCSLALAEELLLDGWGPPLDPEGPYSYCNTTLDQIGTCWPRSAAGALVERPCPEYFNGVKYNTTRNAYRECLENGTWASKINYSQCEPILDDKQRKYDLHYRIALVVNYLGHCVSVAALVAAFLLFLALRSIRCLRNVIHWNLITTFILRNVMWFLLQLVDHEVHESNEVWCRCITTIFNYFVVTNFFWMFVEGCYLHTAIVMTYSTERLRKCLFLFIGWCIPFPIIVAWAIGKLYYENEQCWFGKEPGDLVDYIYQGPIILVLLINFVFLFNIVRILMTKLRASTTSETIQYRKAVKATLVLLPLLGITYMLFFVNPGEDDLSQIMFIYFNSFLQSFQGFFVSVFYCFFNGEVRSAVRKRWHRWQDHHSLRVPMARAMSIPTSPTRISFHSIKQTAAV
T1 sequence (P24387 whole entry): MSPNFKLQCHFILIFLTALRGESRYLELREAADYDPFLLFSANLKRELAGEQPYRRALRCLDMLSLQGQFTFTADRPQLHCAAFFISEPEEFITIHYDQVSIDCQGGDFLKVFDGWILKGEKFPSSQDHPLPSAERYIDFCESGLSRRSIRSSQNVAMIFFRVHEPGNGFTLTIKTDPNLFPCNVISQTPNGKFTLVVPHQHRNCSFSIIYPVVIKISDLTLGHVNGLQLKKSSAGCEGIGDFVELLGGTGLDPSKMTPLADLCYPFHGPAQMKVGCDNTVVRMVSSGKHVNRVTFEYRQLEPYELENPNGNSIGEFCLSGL

Ion channel NompC [6] = molecular target: T2, Ion channel NompC (Danio rerio, UniProt Q7T1G6); assay: Fluorescence counterscreen assay for TRPML3 agonists: dose response cell-based high-throughput screening assay to identify agonists of the transient receptor potential channel N1 (TRPN1). [Related pubchem assays: 1526, 1424, 1448 ]; format: functional
Ion channel NompC [7] = molecular target: T2, Ion channel NompC; assay: activators of mucolipin-3 and mucolipin-2 – cell-based, […], Fura-2 profiling panel, panel member TRPN1 Dose Response (AID 2116)
[8] = molecular target: T3, Voltage-gated N-type calcium channel alpha-1B subunit/Amyloid beta A4 precursor protein-binding family A member 1 (Homo sapiens, UniProt Q00975+Q02410); format: protein assay
T3 sequence (Q00975 whole entry): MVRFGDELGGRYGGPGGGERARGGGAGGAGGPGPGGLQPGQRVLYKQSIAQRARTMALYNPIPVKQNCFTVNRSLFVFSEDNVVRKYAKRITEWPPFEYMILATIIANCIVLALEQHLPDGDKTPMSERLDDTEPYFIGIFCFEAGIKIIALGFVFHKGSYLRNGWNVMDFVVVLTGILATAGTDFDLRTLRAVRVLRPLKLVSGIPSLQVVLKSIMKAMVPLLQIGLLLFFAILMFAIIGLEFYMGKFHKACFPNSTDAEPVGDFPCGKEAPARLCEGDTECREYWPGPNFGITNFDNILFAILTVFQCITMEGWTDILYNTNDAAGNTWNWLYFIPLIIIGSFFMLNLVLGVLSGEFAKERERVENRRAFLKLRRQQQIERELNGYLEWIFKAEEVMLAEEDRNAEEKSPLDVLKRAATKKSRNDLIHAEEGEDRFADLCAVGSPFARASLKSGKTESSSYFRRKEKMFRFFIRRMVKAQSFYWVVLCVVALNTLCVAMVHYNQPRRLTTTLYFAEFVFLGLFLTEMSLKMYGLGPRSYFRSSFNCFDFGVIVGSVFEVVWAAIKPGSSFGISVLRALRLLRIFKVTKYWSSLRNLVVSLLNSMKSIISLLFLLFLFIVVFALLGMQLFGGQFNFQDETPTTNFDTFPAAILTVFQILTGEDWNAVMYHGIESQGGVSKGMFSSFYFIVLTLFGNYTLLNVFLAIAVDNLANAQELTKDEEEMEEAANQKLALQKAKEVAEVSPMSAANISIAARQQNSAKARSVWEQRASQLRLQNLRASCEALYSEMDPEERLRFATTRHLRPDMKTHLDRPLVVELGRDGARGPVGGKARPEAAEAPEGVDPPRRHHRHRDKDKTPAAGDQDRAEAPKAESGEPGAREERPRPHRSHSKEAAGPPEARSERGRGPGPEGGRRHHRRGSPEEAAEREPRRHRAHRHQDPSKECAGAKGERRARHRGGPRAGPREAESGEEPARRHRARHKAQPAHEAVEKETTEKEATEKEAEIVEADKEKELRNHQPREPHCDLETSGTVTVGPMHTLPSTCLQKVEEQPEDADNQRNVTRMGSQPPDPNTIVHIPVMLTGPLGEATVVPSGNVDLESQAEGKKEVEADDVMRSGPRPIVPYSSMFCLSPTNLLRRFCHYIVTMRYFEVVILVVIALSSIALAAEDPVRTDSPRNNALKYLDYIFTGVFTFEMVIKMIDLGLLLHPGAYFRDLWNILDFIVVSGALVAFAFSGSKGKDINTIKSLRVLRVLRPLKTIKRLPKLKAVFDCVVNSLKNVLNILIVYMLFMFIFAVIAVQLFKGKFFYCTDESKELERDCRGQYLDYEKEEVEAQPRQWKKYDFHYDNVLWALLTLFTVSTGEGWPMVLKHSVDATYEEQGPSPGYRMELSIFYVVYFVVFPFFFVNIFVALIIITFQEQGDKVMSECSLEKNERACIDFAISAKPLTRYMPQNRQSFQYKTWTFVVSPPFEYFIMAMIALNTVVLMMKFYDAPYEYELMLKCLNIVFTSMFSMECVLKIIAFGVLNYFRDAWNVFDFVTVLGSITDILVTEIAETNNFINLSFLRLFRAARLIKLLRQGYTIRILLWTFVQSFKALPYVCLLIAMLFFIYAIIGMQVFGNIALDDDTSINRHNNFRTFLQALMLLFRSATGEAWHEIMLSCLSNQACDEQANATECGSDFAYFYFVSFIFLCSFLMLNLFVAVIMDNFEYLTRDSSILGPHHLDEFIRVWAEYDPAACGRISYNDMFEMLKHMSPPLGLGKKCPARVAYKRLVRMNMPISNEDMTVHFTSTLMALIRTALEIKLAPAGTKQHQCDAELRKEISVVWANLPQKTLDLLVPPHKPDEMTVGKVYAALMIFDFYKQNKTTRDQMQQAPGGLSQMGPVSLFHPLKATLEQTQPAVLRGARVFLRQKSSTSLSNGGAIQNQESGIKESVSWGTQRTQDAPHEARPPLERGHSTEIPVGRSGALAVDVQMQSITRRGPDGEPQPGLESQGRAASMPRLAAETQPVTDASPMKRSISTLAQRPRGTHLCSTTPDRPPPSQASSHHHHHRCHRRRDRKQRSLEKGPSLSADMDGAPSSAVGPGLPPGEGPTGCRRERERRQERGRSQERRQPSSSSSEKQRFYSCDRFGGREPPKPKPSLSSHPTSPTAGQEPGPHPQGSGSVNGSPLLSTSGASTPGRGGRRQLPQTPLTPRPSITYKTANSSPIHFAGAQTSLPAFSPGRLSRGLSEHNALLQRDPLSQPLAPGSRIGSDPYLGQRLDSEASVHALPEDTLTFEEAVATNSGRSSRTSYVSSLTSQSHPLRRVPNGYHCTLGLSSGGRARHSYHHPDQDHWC
T3 sequence (Q02410 whole entry): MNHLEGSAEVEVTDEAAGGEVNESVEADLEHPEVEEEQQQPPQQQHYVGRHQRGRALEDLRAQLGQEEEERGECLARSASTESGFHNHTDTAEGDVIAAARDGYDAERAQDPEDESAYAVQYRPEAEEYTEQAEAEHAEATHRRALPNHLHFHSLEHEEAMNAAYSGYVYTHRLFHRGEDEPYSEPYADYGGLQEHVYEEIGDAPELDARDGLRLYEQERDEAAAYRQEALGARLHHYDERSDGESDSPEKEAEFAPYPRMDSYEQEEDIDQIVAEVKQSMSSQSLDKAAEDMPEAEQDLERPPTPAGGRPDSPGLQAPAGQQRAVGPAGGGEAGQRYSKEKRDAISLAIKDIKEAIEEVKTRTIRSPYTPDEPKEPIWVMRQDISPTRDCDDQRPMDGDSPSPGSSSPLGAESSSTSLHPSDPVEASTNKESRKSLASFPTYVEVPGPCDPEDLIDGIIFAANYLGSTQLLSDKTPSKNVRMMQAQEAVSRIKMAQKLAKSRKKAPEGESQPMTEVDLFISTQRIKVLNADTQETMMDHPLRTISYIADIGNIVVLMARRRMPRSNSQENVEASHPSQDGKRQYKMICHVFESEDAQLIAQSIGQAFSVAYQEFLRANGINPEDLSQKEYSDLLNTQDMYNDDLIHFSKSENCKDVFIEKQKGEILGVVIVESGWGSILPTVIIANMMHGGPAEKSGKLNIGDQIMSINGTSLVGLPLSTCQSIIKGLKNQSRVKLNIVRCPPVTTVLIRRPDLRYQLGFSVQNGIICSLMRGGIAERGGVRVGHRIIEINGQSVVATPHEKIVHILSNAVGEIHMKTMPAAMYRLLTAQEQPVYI

Prothrombin = Prothrombin (Bos taurus, UniProt P00735); assay: thrombin protease inhibitors – biochemical, fluorescence polarization, uHTS hits, dose response (AID 602369); format: functional
[9] = molecular target: T3, Voltage-gated N-type calcium channel alpha-1B subunit/Amyloid beta A4 precursor protein-binding family A member 1; assay: disruptors of Mint-PDZ/N-type channel peptide interaction – biochemical, HTRF, set 2, SAR follow-up (AID 434980); format: functional
[10] = molecular target: T4, Runt-related transcription factor 1/Core-binding factor subunit beta (Homo sapiens, UniProt Q01196+Q13951); assay: Runt domain/CBFb-SMMHC interaction disruptors – biochemical, TR-FRET (AID 1438); format: protein assay
T4 sequence (Q01196 whole entry, the tested form may be a part): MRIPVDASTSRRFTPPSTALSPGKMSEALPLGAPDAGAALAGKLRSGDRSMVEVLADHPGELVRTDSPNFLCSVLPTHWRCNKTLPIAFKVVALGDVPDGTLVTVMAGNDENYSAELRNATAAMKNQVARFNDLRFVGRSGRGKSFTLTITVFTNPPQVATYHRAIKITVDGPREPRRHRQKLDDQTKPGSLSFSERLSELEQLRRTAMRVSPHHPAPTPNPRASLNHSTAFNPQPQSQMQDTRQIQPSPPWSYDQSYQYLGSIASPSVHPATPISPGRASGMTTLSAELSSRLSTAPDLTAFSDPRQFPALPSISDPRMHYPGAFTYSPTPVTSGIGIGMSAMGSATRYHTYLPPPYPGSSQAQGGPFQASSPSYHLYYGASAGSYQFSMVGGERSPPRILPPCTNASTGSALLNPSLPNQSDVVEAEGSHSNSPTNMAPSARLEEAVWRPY
T4 sequence (Q13951 whole entry, the tested form may be a part): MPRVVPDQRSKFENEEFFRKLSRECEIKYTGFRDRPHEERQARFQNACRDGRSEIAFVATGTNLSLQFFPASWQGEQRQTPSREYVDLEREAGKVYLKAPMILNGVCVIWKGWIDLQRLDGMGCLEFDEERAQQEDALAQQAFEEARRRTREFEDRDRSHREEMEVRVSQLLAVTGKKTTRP

[11] = molecular target: T5, Probable nicotinate-nucleotide adenylyltransferase (Staphylococcus aureus (strain N315), UniProt P65502); format: functional, Staphylococcus aureus subsp. aureus N315;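 on IC50 Mean: confirmatory dose-response retesting of NadD inhibitor hits first found in an ultra-high-throughput screen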
T5 sequence (P65502 whole entry): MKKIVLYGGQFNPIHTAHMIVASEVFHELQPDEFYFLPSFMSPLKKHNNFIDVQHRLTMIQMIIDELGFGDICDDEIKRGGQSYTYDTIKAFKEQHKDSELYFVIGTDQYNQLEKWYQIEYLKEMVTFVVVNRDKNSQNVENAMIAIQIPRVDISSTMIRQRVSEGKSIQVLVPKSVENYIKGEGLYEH

[12] = molecular target: T3, Voltage-gated N-type calcium channel alpha-1B subunit/Amyloid beta A4 precursor protein-binding family A member 1; format: protein assay; remark: listed apart in the source
[13] = molecular target: 26S proteasome non-ATPase regulatory subunit 14 (Homo sapiens, UniProt O00487); assay: inhibition of proteasome subunit RPN11 – biochemical, fluorescence polarization, uHTS hits, confirmation (AID 602368); format: functional
[14] = molecular target: Induced myeloid leukemia cell differentiation protein Mcl-1 (Homo sapiens, UniProt Q07820); format: functional
Induced myeloid leukemia cell differentiation protein Mcl-1, sequence (Q07820 whole entry): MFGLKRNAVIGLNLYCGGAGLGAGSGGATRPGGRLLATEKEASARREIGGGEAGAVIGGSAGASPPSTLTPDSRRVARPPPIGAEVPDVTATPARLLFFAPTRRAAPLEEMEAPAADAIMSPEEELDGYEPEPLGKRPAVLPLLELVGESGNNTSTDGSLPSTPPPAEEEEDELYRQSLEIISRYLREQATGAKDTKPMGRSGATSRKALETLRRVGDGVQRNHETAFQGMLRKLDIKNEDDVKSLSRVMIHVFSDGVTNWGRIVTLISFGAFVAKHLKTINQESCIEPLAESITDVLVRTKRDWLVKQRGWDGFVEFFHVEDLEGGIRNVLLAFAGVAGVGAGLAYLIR

[15] = molecular target: T5, Probable nicotinate-nucleotide adenylyltransferase; format: functional, Staphylococcus aureus subsp. aureus N315; conditions: read-out: IC50_Mean
[16] = molecular target: 72 kDa type IV collagenase (Homo sapiens, UniProt P08253); assay: Dose Response validation of uHTS RPN11 inhibitor hits using a MMP-2 Fluorescence assay.; format: functional
[17] = molecular target: T4, Runt-related transcription factor 1/Core-binding factor subunit beta; assay: disruptors of Runt domain/CBFb-SMMHC interaction – biochemical, FRET, Cerulean-Runt, Venus-CBFb-SMMHC, uHTS, […] (AID 1434); format: protein assay
[18] = molecular target: T3, Voltage-gated N-type calcium channel alpha-1B subunit/Amyloid beta A4 precursor protein-binding family A member 1; assay: disruptors of Mint-PDZ/N-type channel peptide interaction – biochemical, HTRF, SAR follow-up (AID 2489); format: functional

## O=C(Nc1ccc(Cl)c(Cl)c1)c1ccno1
[1]
  EC50: 11.8 µM (active)
[2]
  EC50: 11.1 µM (active)

## N#CC(OC(=O)c1ccccc1)c1cccc([N+](=O)[O-])c1 (stereo unspecified)
[3]
  AC50: 7.45 µM (active)

## O=c1c2ccccc2nc(/C=C\c2ccccc2[N+](=O)[O-])n1-c1ccccc1O
HeLa
  AC50: 94.2 µM (active)

## COc1ccc(Oc2c(Cl)cnn(-c3cccc(C(F)(F)F)c3)c2=O)cc1
[4]
  IC50: 2.6 µM (active)

## O=S(=O)(NC1CCCCC1N1CCOCC1)c1ccc(Cl)cc1 (stereo unspecified)
Mucolipin-3
  EC50: 0.823 µM (active)
[5]
  EC50: 13.7 µM (active)
Ion channel NompC [6]
  EC50: > 29.9 µM (not active)
Ion channel NompC [7]
  EC50: 14 µM (inactive)

## CN(CCC#N)C(=O)COC(=O)c1c2c(nc3ccccc13)/C(=C/c1ccco1)CC2
[8]
  IC50: 6.34 µM (active)
Prothrombin
  IC50: 6.71 µM (active)
[9]
  IC50: 2.82 µM (active)
[10]
  IC50: > 100 µM (inactive)
[11]
  IC50: 7.86 µM (active)
[12]
  IC50: 3.22 µM (active)
[13]
  IC50: 4.76 µM (active)
[14]
  IC50: 1.44 µM (active)
[15]
  IC50: 16.9 µM (active)
[16]
  IC50: > 100 µM (inactive)
[17]
  IC50: 62.4 µM (inactive)
[18]
  IC50: 6.19 µM (active)
